Measurements from the NIST ThermoML archive (doi:10.1021/je800110r).

Conditions: 283.15 K, Liquid, Vibrating tube method

CCCCCCCCCC [decane]
Conditions	mass density [kg/m3]
11428 kPa	745.5
11443 kPa	745.5
11462 kPa	745.5
11483 kPa	745.5
11498 kPa	745.5
11518 kPa	745.4
11530 kPa	745.6
11543 kPa	745.5
11625 kPa	745.7
11647 kPa	745.7
11663 kPa	745.7
11681 kPa	745.6
11774 kPa	745.8
11790 kPa	745.8
11806 kPa	745.8
11824 kPa	745.8
11838 kPa	745.7
11856 kPa	745.8
11876 kPa	745.9
11889 kPa	745.8
11904 kPa	745.8
11924 kPa	745.9
11943 kPa	745.8
11954 kPa	745.8
11969 kPa	745.9
11982 kPa	746
11997 kPa	745.9
12010 kPa	746
12024 kPa	745.9
12038 kPa	746
12052 kPa	745.9
12068 kPa	745.9
12080 kPa	746
12094 kPa	745.9
12108 kPa	746
12130 kPa	746
12149 kPa	746
12165 kPa	745.9
12180 kPa	746.1
12197 kPa	746
12211 kPa	746
12226 kPa	746
12241 kPa	745.9
12262 kPa	746.1
12280 kPa	746.1
12300 kPa	746
12319 kPa	746.1
12339 kPa	746.1
12356 kPa	746.1
12371 kPa	746.1
12386 kPa	746.2
12401 kPa	746.1
12415 kPa	746.2
12431 kPa	746.2
12451 kPa	746.3
12469 kPa	746.2
12484 kPa	746.2
12505 kPa	746.2
12519 kPa	746.2
12535 kPa	746.3
12550 kPa	746.3
12571 kPa	746.3
12588 kPa	746.3
12602 kPa	746.3
12618 kPa	746.3
12633 kPa	746.3
12649 kPa	746.3
12665 kPa	746.3
12678 kPa	746.3
12693 kPa	746.4
12709 kPa	746.4
12725 kPa	746.3
12741 kPa	746.3
12756 kPa	746.4
12772 kPa	746.5
12794 kPa	746.4
12812 kPa	746.3
12837 kPa	746.4
12855 kPa	746.5
12877 kPa	746.5
12895 kPa	746.6
12914 kPa	746.5
12933 kPa	746.5
12955 kPa	746.4
12972 kPa	746.5
12994 kPa	746.6
13013 kPa	746.5
13033 kPa	746.5
13052 kPa	746.5
13075 kPa	746.5
13095 kPa	746.6
13117 kPa	746.6
13316 kPa	746.8
13337 kPa	746.7
13598 kPa	746.9
13632 kPa	746.9
13652 kPa	747
13673 kPa	747
13697 kPa	746.9
13715 kPa	747
13740 kPa	747
13765 kPa	747.1
13787 kPa	747.1
13809 kPa	747
13831 kPa	747.1
13856 kPa	747
13875 kPa	747.2
13901 kPa	747.1
13923 kPa	747.1
13949 kPa	747.1
13968 kPa	747.2
13994 kPa	747.2
14017 kPa	747.2
14039 kPa	747.2
14062 kPa	747.3
14088 kPa	747.2
14138 kPa	747.2
14164 kPa	747.3
14191 kPa	747.4
14216 kPa	747.4
14359 kPa	747.4
14385 kPa	747.5
14411 kPa	747.4
14428 kPa	747.6
14446 kPa	747.5
14481 kPa	747.5
14499 kPa	747.5
14528 kPa	747.6
14543 kPa	747.6
14563 kPa	747.5
14578 kPa	747.6
14599 kPa	747.6
14614 kPa	747.6
14632 kPa	747.6
14650 kPa	747.6
14668 kPa	747.7
14686 kPa	747.7
